Several values for one entry are separate records, joined by “and”; a condition that tells them apart may be missing. Equal entries are not always repeated.
Target: T1, BAR (Streptomyces hygroscopicus, UniProt P16426)
T1 construct: made in house; host or cells: E. coli BL21(DE3)
Assay: In vitro enzyme kinetic assays of recombinant BAR against native and non-native substrates
Format: biochemical
Settings: for in vitro substrate of BAR (N-acetyltransferase activity): recombinant BAR, up to 8.4 mM substrate; for KM values of BAR against aminoadipate and tryptophan (estimated): substrates reached solubility limit before saturation
Description: The BAR coding sequence was amplified by PCR (KaPa HiFi HotStart polymerase; KaPa Biosystems) from genomic DNA extracted from homozygous plants of the SAIL line SAIL_1165_B02 using primers SAIL_BAR_F_pPROEX and SAIL_BAR_R_pPROEX (see Table 3) and then cloned into pProEX Hta (Invitrogen) via EcoRI and HindIII resulting in a 6×His-BAR fusion construct. 6×His-BAR was expressed in E. coli BL21(DE3) grown in Luria-Bertani medium. At an optical density at 600 nm of 0.6, protein expression was induced with 1.0 mM isopropylthio-β-galactoside (IPTG), and cells were grown at 37° C. for 2.5 h. Cells from a 200 mL culture were harvested by centrifugation and resuspended in 8 mL binding buffer (20 mM HEPES-KOH pH 7.4, 0.5 M NaCl, 10% (v/v) glycerol, 20 mM imidazole) supplemented with 3 U mL^−1 DNase (Promega), 2 mM MgCl2 and 1/10 of a tablet containing a protease inhibitor cocktail (Complete; Roche Applied Science). Cell lysis was performed by use of a high-pressure cell breaker (Cell Disruption System; Constant Systems) at a pressure of 150 MPa. All the following steps were carried out at 4° C. The lysate was centrifuged (16,000 g, 20 min) and a 50% (v/v) slurry of Ni^2+-ion charged agarose beads (Ni Sepharose 6 Fast Flow; GE Healthcare) in binding buffer was added to the supernatant (0.25 mL 50% slurry per mL of supernatant). The mix was incubated for 1 h with slight shaking and then loaded on a Poly-Prep® chromatography column (0.8×4 cm; Bio-Rad). The beads were washed with 10 mL of binding buffer and 3 mL of wash buffer (20 mM HEPES-KOH pH 7.4, 0.5 M NaCl, 10% (v/v) glycerol, 40 mM imidazole) by gravity flow before elution with 3 mL of elution buffer (20 mM HEPES-KOH pH 7.4, 0.5 M NaCl, 10% (v/v) glycerol, 500 mM imidazole). The buffer was exchanged with storage buffer (20 mM HEPES-KOH pH 7.4, 0.5 M NaCl, 10% (v/v) glycerol, 1 mM dithiothreitol) using an ultra-centrifugal filter (MWCO 10,000; Vivaspin 6, Sartorius Stedim Biotech). The purity of the protein preparation was assessed by SDS-PAGE and the concentration was determined by using a NanoDrop 2000 UV-VIS spectrometer (Thermo Scientific).
Enzyme assays were carried out in 10 mM HEPES-KOH (pH 7.4), 20 mM MgCl2, and 2 mM acetyl-CoA (Sigma-Aldrich; final volume 25 μl). Before determining the kinetics of BAR with different substrates, time-dependent activity of the purified protein was tested at substrate concentrations of 200 μM L-phosphinothricin (glufosinate ammonium, considered as a 1:1 mixture of L- and D-enantiomers; Sigma-Aldrich) or 400 μM (L-aminoadipate and L-tryptophan; Sigma-Aldrich). Reactions were initiated by the addition of purified BAR at 0.03 μM (assays with L-phosphinothricin) or 20 μM (assays with aminoadipate or tryptophan) and incubated at 25° C. for the indicated times (FIGS. 8A-8D). Reactions were stopped by the addition of three volumes of methanol supplemented with 0.5% (v/v) formic acid. Likewise, substrate concentration-dependence was determined by incubating assays for 7.5 min (assays with L-phosphinothricin) or 2 h (assays with aminoadipate or tryptophan; FIG. 3). Control assays (FIG. 3B) were performed with aminoadipate and tryptophan at 8.4 mM, but in the absence of BAR. In addition, D-tryptophan (Sigma-Aldrich) was tested as potential substrate at 8.4 mM (FIG. 3B).
In vitro assays with aminoadipate and tryptophan as substrate were analyzed by LC-MS as described above. In vitro assays with L-phosphinothricin were analyzed by LC-MS as described above, but using a normal-phase chromatography system as follows: an 150 mm amide column (ACQUITY UPLC™ BEH amide, 1.7 μm, 2.1×150 mm, Waters) was developed using LC-MS solvents (Chemie Brunschwig) with a gradient (flow rate of 0.4 mL min^−1) of solvent B (acetonitrile with 0.1% (v/v) formic acid) in solvent A (water with 0.1% (v/v) formic acid) as follows (all (v/v)): 95% for 0.5 min, 95% to 30% in 12 min, 30% for 2 min, 30% to 95% in 1 min and 95% for 5 min. […]

T1 sequence (P16426 whole entry): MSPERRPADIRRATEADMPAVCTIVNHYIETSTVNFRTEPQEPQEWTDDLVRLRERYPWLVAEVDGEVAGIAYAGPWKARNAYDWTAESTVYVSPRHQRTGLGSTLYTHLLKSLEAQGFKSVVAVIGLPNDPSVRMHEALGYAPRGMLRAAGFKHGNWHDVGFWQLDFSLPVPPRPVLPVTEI

Structure (SMILES)	catalytic activity of BAR toward aminoadipate compared with tryptophan (in vitro)	in vitro substrate of BAR (N-acetyltransferase activity)	KM values of BAR against aminoadipate and tryptophan (estimated)	Km (N-acetylation by recombinant BAR, Michaelis-Menten kinetics, read-out: apparent KM)
NC(CCCC(=O)O)C(=O)O [aminoadipate, L-aminoadipate]	relatively higher catalytic activity	in vitro substrates of BAR	at least in the millimolar range	–
CP(=O)(O)CC[C@H](N)C(=O)O [phosphinothricin, reference compound]	–	–	–	~39 µM and 39 µM
N[C@@H](Cc1c[nH]c2ccccc12)C(=O)O [tryptophan, L-tryptophan]	–	in vitro substrates of BAR	at least in the millimolar range	–

— patent US11492636B2, “Modified bialaphos resistance acetyltransferase compositions and uses thereof” (Whitehead Institute for Biomedical Research, priority 2016, dated 2022)
